Here are results for two compounds from US20090082437A1, “Use of Oxaliplatin for Enhancing Radiosensitivity in Radiotherapy of Cervical Cancer” (MACKAY MEMORIAL HOSPITAL, priority 2007, published 2009).

Assay [1] deals with HPV 18 positive adenocarcinoma cell (HeLa). The note with it: cited from earlier work.
The test system of the next assay is gamma-H2AX in HeLa cells. The assay can be described thus: Immunofluorescent staining of gamma-H2AX. The assay is classed as cell-based, human. As to conditions: oxaliplatin 5 μM 2 h plus 2 Gy, 15 min after radiation. As to the method:
Immunofluorescent staining was used to determine radiation-induced expression of gamma-H2AX which is an indicator of DNA double-strand break. For immunofluorescent staining of gamma-H2AX, HeLa cervical cancer cells that were untreated (control), treated with oxaliplatin 5 μM for 2 h, irradiation of 2 Gy, and oxaliplatin plus irradiation, cells were harvested 15 min after radiation, stained with Rhodamine-conjugated gamma-H2AX antibody (red) and counterstained with DAPI (blue), respectively.

A further assay has as its system HeLa (HPV 18+) cells. Kind of assay: MTT cell viability assay. The note with it: 24 hours' exposure, MTT after 2 days in fresh medium. The assay is classed as cell-based, human. The source says: (§1) An ideal radiosensitizer means it enhances radiosensitivity at non-toxic dose, but not due to the combined toxicity of drug and radiation. Thus to determine the toxic effect of different oxaliplatin concentrations on human cervical cancer cells by using 3-(4,5-dimethylthiazol-2-yl)-2, S-diphenyl tetrazolium bromide (MTT) assay. This assay is commonly used to determine cell proliferation, percent of viable cells, and cytotoxicity. MTT is a yellow dye, which can be absorbed by the living cells and be reduced to purplish blue formazan crystals by succinate tetrazolium reductase in mitochondria. Formazan formation can therefore be used to assess and determine the survival rate of cells.
(§2) In preliminary work, the human cervical cancer cell lines HeLa (HPV 18+) and SiHa (HPV 16+) were obtained from American Type Culture Collection (Manassas, Va.). […]
(§3) The human cervical cancer cell lines HeLa (HPV 18+) and SiHa (HPV 16+) were separately cultivated in media containing various doses (0˜10 μM) of oxaliplatin for 24 hours. […] For the assay, the cells were incubated with the MTT (tetrazolium compounds) for 4 h, lysed with DMSO, and the color crystals were solubilized with an ELISA reader at a wavelength of 570 nm.

The subject of the next assay is SiHa (HPV 16+) cells. The assay can be described thus: MTT cell viability assay. As to conditions: 24 hours' exposure, MTT after 2 days in fresh medium. It counts as cell-based, human.
Source text: as §1, §2, §3
Background: Formazan colour is commonly taken as a measure of viable cells.

Assay [2] relates to HeLa cells. The assay can be described thus: Colony formation assay after oxaliplatin pretreatment and irradiation (radiation survival). The assay is classed as cell-based, human. As to the method:
(§4) To evaluate whether oxaliplatin treatment influenced the radiosensitivity of cervical cancer cells, this experiment treated HeLa and SiHa cells with oxaliplatin at various concentrations for 2 h prior to radiation survival assays in the invention.
(§5) Based on the above results of cell viability assessment, 0˜10 μM oxaliplatin was used to test for radiation sensitization. HeLa and SiHa were pretreated with various doses (0, 1.25, 5, and 10 μM) of oxaliplatin for 2 h, and the oxaliplatin was washed out before radiation delivery. Irradiation was performed with 6 MeV of electron beam by a linear accelerator (Clinac® 1800, Varian Associates, Inc.) with various doses (0.5, 1, 2 and 3 Gy) at a dose rate of 2.4 Gy/min in a single fraction. Full electron equilibrium was ensured for each fraction by a parallel plate PR-60C ionization chamber (CAPINTEL, Inc., Ramsey, N.J.). Following radiation, a colony formation assay was performed. The ionizing radition of the present invention used include, but not limited to, electron beam radition, photon, electron, gamma, alpha, beta, neutron, and proton radiation. Among them, electron beam radition is preferred.
(§6) Viable tumor cells (10^3) were plated onto culture dishes (35 mm^2) and allowed to grow in McCoy's 5A medium containing 20% heat-inactivated FCS and 0.24% agarose at 37° C. in a humidified 5% CO2 incubator. After 10 to 14 days, the resultant colonies were stained with 0.4% crystal violet and the colonies containing at least 50 cells were determined. The surviving fraction was calculated as the mean colonies/(cells inoculated×plating efficiency). The control plating efficiency for HeLa and SiHa cells was 40-60%. Survival curves were fitted by a linear-quadratic model. The sensitizer enhancement ratio (SER) was calculated as the radiation dose needed for radiation alone divided by the dose needed for oxaliplatin plus radiation to yield a surviving fraction of 37% (Do in radiobiology).
(§7) Statistical analysis was performed by analysis of variance when comparing the colony formation between different treatment conditions. All data were presented as mean ±standard error of the mean (SEM). SPSS 10.0 software (SPSS Inc, Chicago) was used for analysis of all the data. Statistical significance was assumed where the p value was less than 0.05.

A further assay has as its system SiHa cells. The description is as above. The assay is classed as cell-based, human. As to the method: as §4, §5, §6, §7
The subject of assay [3] is HeLa cells. The assay can be described thus: Cell cycle distribution by propidium iodide staining and flow cytometry. The assay is classed as cell-based, human. As to the method:
To eliminate the potential contribution of cell cycle redistribution to the observed radiosensitization, flow cytometric analysis was performed to determine cell cycle progression after treatment of oxaliplatin. After treating cervical cancer cell line HeLa with 5 μM oxaliplatin for 2 h or 24 h after radiaton, drugs was washed out and cells were cultured for further 24 h. HeLa cells were harvested and fixed with 70% ethanol at 4° C. for 1 h. The cells were stained for 30 min with propidium iodide solution (containing propidium iodide, 0.5 mg/mL; RNAse, 0.1 mg/mL) from a CycleTEST PLUS DNA reagent kit (Becton Dickinson, Lincoln Park, N.J.). Analysis of the DNA content was performed using a FACScaliber flow cytometer (Becton Dickinson). The data from 10^4 cells were collected and analyzed using ModFit software (Becton Dickinson).
For orientation: A flow cytometer gives signals particle by particle.

In assay [4] the test system is pATM, pChk1, pChk2, Rad51 in HeLa cells. Kind of assay: Western blot of DNA damage repair molecules. The note with it: oxaliplatin 5 μM 2 h plus radiation 2 Gy. It counts as cell-based, human. As to the method:
For western blot analysis, HeLa cells were cultured with various treatments: untreated (control), oxaliplatin 5 μM for 2 h (oxaliplatin), radiation 2 Gy (RT alone) and oxaliplatin plus radiation (oxaliplatin+RT) for further 1 h and 6 h. Then, the cellular proteins were extracted, quantified and subjected to gel electrophoresis using 10% (wt/vol) SDS-polyacrylamide gels. Protein samples were then blotted onto polyvinylidene difluoride (PVDF) membranes (Bio-Rad, Hercules, Calif.). The membranes were probed with diluted primary antibodies and detected using horseradish peroxidase-conjugated anti-mouse IgG followed by the use of enhanced chemiluminescence kits (Amersham Pharmacia Biotech). Anti-actin antibody was used as an internal control.
(In western blotting, separated proteins are transferred to a membrane and probed.)

Assay [5] relates to HeLa cells. Kind of assay: Cell morphology (Wright's staining), mitotic catastrophe. The assay is classed as cell-based, human. As to the method:
After seeding for 24 h, HeLa cells were treated with various conditions including untreated control, oxaliplatin 5 μM for 2 h, radiation 2 Gy, and oxaliplatin 5 μM for 2 h followed by washing out and radiation 2 Gy. After these treatments, cell were cultured for further 24 h and then collected for Wright's staining and observation under a light microscope.

Where [6] appears, read: oxaliplatin 5 μM 2 h, versus untreated.

As for `N.N.[Cl][Pt][Cl]` [cisplatin], the “effect of combination with radiation” value in assay [1] is recorded as “no effect”.
Regarding `O=C1[O][Pt]2([NH][C@@H]3CCCC[C@H]3[NH]2)[O]C1=O` [oxaliplatin], the “radiation-induced early expression of gamma-H2AX” value in the assay with gamma-H2AX in HeLa cells is “reduced”. The “highest non-toxic (cell viability>90%) dose” value in the assay with HeLa (HPV 18+) cells amounted to 5 µM; in the assay on SiHa (HPV 16+) cells, 10 µM. The “sensitizer enhancement ratio (SER) at 37% survival” value in the assay with HeLa cells [2] (HeLa, oxaliplatin 5 μM for 2 h before radiation) is 1.7; in the assay with HeLa cells [2] (HeLa, oxaliplatin 10 μM for 2 h before radiation (maximal SER)), 3.4. In addition, the “survival of irradiated tumor cells compared to radiation only” value in the assay with HeLa cells [2] (HeLa, pretreatment at 5 and 10 μM, radiation 0.5-3 Gy) is reported as “markedly decreased”; in the assay on SiHa cells (pretreatment at 5 and 10 μM, radiation 0.5-3 Gy) it was “markedly decreased”. Moreover, the “enhancement of radiation efficiency versus radiation alone” value in the assay on HeLa cells [2] (cervical cancer cell lines (HeLa and SiHa)) was 3.1-3.9 times. In addition, the “maximal sensitizer enhancement ratio (SER) at 37% survival” value in the assay on SiHa cells (oxaliplatin 2 h before radiation) is 4.8. Besides, the “proportion in the G0/G1 phase” value with HeLa cells [3] (setting [6]) is on record as “decreased”. Moreover, in the assay on HeLa cells [3] (setting [6]), the “proportion of cells in the S phase” value was “remained unchanged”. The “percentage of cells at G2/M phase” value in the assay on HeLa cells [3] (oxaliplatin 5 μM plus irradiation, irradiation alone 26.2%±3.7) is 32.3%±3.5. The “Chk1 phosphorylation in irradiated cells” value in assay [4] is given as “no effect”. In addition, in assay [4], the “expression of rad51 in irradiated cells” value is on record as “no effect”. Moreover, the “radiation-augmented phosphorylation of Chk2” value in [4] is on record as “reduced”. The “radiation-induced expression of phosphorylated ATM” value in assay [4] was “markedly reduced”. The “percentages of apoptosis and necrosis” value in the assay with HeLa cells [5] (between all groups) is “no marked changes”. Also, the “percentage cells with mitotic catastrophe” value in the assay on HeLa cells [5] (oxaliplatin 5 μM 2 h alone, untreated control 5.6±1.3%) is given as 27.3±2.2%; in the assay on HeLa cells [5] (oxaliplatin 5 μM 2 h followed by radiation 2 Gy, radiation alone 16.7±3.2%), 38.5±3.8%.
